Measured values taken from PubChem BioAssay (NCI).
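Interpolation was linear, between the two tested concentrations surrounding the appropriate level; five concentrations were tested over 48 hours in 96-well plates. TGI marks complete inhibition of growth.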

Assays:
Assay in all cases: NCI-60 cell line screen, 48 h
[1] = tested on: 786-0 renal
[2] = tested on: A498 renal
[3] = tested on: A549 NSCLC
[4] = tested on: ACHN renal
[5] = tested on: BT-549 breast
[6] = tested on: CAKI-1 renal
[7] = tested on: CCRF-CEM leukemia
[8] = tested on: COLO 205 colon
[9] = tested on: DU-145 prostate
[10] = tested on: EKVX NSCLC
[11] = tested on: HCC-2998 colon
[12] = tested on: HCT-116 colon
[13] = tested on: HCT-15 colon
[14] = tested on: HL-60(TB) leukemia
[15] = tested on: HOP-62 NSCLC
[16] = tested on: HS 578T breast
[17] = tested on: HT29 colon
[18] = tested on: IGROV1 ovarian
[19] = tested on: K-562 leukemia
[20] = tested on: KM12 colon
[21] = tested on: LOX IMVI melanoma
[22] = tested on: M14 melanoma
[23] = tested on: MALME-3M melanoma
[24] = tested on: MCF7 breast
[25] = tested on: MDA-MB-231 breast
[26] = tested on: MDA-N
[27] = tested on: MOLT-4 leukemia
[28] = tested on: NCI-H226 lung
[29] = tested on: NCI-H23 lung
[30] = tested on: NCI-H460 lung
[31] = tested on: NCI/ADR-RES ovarian
[32] = tested on: OVCAR-3 ovarian
[33] = tested on: OVCAR-4 ovarian
[34] = tested on: OVCAR-5 ovarian
[35] = tested on: OVCAR-8 ovarian
[36] = tested on: PC-3 prostate
[37] = tested on: RPMI-8226 leukemia
[38] = tested on: RXF 393 renal
[39] = tested on: SF-268 CNS
[40] = tested on: SF-295 CNS
[41] = tested on: SF-539 CNS
[42] = tested on: SK-MEL-28 melanoma
[43] = tested on: SK-MEL-5 melanoma
[44] = tested on: SK-OV-3 ovarian
[45] = tested on: SN12C renal
[46] = tested on: SNB-19 CNS
[47] = tested on: SNB-75 CNS
[48] = tested on: SR leukemia
[49] = tested on: SW-620 colon
[50] = tested on: T-47D breast
[51] = tested on: TK-10 renal
[52] = tested on: U251 CNS
[53] = tested on: UACC-257 melanoma
[54] = tested on: UACC-62 melanoma
[55] = tested on: UO-31 renal
[56] = tested on: HOP-92 NSCLC
[57] = tested on: MDA-MB-435
[58] = tested on: NCI-H522 lung
[59] = tested on: SK-MEL-2 melanoma

CC(C)(C)NC(NC(C)(C)C)=C(C(Cl)=C(Cl)Cl)[N+](=O)[O-]
TGI [1]: > 100 µM | TGI [2]: > 100 µM | TGI [3]: > 100 µM | TGI [4]: > 100 µM | TGI [5]: > 100 µM | TGI [6]: > 100 µM | TGI [7]: > 100 µM | TGI [8]: > 100 µM | TGI [9]: > 100 µM | TGI [10]: > 100 µM | TGI [11]: > 100 µM | TGI [12]: > 100 µM | TGI [13]: > 100 µM | TGI [14]: > 100 µM | TGI [15]: > 100 µM | TGI [16]: > 100 µM | TGI [17]: > 100 µM | TGI [18]: > 100 µM | TGI [19]: > 100 µM | TGI [20]: > 100 µM | TGI [21]: > 100 µM | TGI [22]: > 100 µM | TGI [23]: > 100 µM | TGI [24]: > 100 µM | TGI [25]: > 100 µM | TGI [26]: > 100 µM | TGI [27]: > 100 µM | TGI [28]: > 100 µM | TGI [29]: > 100 µM | TGI [30]: > 100 µM | TGI [31]: > 100 µM | TGI [32]: > 100 µM | TGI [33]: > 100 µM | TGI [34]: > 100 µM | TGI [35]: > 100 µM | TGI [36]: > 100 µM | TGI [37]: > 100 µM | TGI [38]: > 100 µM | TGI [39]: > 100 µM | TGI [40]: > 100 µM | TGI [41]: > 100 µM | TGI [42]: > 100 µM | TGI [43]: > 100 µM | TGI [44]: > 100 µM | TGI [45]: > 100 µM | TGI [46]: > 100 µM | TGI [47]: > 100 µM | TGI [48]: > 100 µM | TGI [49]: > 100 µM | TGI [50]: > 100 µM | TGI [51]: > 100 µM | TGI [52]: > 100 µM | TGI [53]: > 100 µM | TGI [54]: > 100 µM | TGI [55]: > 100 µM

CC(=O)Oc1ccn2nc(C)c(Br)c2c1Br
TGI [1]: > 100 µM | TGI [2]: 72.9 µM | TGI [3]: 57.6 µM | TGI [4]: 31.4 µM | TGI [5]: 60.2 µM | TGI [6]: 21.7 µM | TGI [7]: 47.1 µM | TGI [8]: 38 µM | TGI [9]: > 100 µM | TGI [10]: > 58.5 µM | TGI [11]: 49.9 µM | TGI [12]: > 58.7 µM | TGI [13]: 33.6 µM | TGI [14]: > 66.5 µM | TGI [15]: > 87 µM | TGI [56]: 36.7 µM | TGI [16]: > 100 µM | TGI [17]: 44.6 µM | TGI [18]: > 72.2 µM | TGI [19]: 50.1 µM | TGI [20]: > 100 µM | TGI [21]: 36 µM | TGI [22]: 34.7 µM | TGI [23]: 40.6 µM | TGI [24]: 36.1 µM | TGI [25]: 54.3 µM | TGI [57]: 35.2 µM | TGI [26]: 32.6 µM | TGI [27]: 34.9 µM | TGI [28]: > 60.2 µM | TGI [29]: 34.8 µM | TGI [30]: 53.1 µM | TGI [58]: 36.8 µM | TGI [31]: > 100 µM | TGI [32]: 33.4 µM | TGI [33]: 30.6 µM | TGI [35]: > 83.7 µM | TGI [36]: 43.7 µM | TGI [39]: > 90.1 µM | TGI [40]: > 89.3 µM | TGI [41]: 45.7 µM | TGI [59]: > 67 µM | TGI [42]: 45 µM | TGI [43]: 31.7 µM | TGI [45]: > 57.8 µM | TGI [46]: > 100 µM | TGI [47]: > 56.2 µM | TGI [48]: > 100 µM | TGI [49]: > 73.6 µM | TGI [50]: > 76.8 µM | TGI [51]: > 94.8 µM | TGI [52]: > 100 µM | TGI [53]: 32.2 µM | TGI [54]: 37.5 µM | TGI [55]: > 29.6 µM

CCC(=O)OCc1ccc2oc(=O)c(C(=O)Oc3cncc(Cl)c3)cc2c1
TGI [1]: > 100 µM | TGI [3]: > 100 µM | TGI [4]: > 100 µM | TGI [5]: > 100 µM | TGI [6]: > 100 µM | TGI [7]: 24.8 µM | TGI [8]: > 100 µM | TGI [9]: > 100 µM | TGI [10]: > 100 µM | TGI [11]: > 100 µM | TGI [12]: > 100 µM | TGI [13]: > 100 µM | TGI [15]: > 100 µM | TGI [56]: > 100 µM | TGI [16]: > 100 µM | TGI [17]: > 100 µM | TGI [18]: > 100 µM | TGI [19]: 77.9 µM | TGI [20]: > 100 µM | TGI [21]: > 100 µM | TGI [22]: > 100 µM | TGI [23]: > 100 µM | TGI [24]: > 100 µM | TGI [25]: > 100 µM | TGI [57]: > 100 µM | TGI [26]: > 100 µM | TGI [27]: > 100 µM | TGI [28]: > 100 µM | TGI [29]: > 100 µM | TGI [30]: > 100 µM | TGI [58]: > 100 µM | TGI [31]: > 100 µM | TGI [32]: > 100 µM | TGI [33]: > 100 µM | TGI [34]: > 100 µM | TGI [35]: > 100 µM | TGI [36]: > 100 µM | TGI [37]: > 100 µM | TGI [38]: > 100 µM | TGI [39]: > 100 µM | TGI [40]: > 100 µM | TGI [41]: > 100 µM | TGI [59]: > 100 µM | TGI [42]: > 100 µM | TGI [43]: > 100 µM | TGI [44]: > 100 µM | TGI [45]: > 100 µM | TGI [46]: > 100 µM | TGI [47]: > 100 µM | TGI [48]: > 100 µM | TGI [49]: > 100 µM | TGI [50]: > 100 µM | TGI [51]: > 100 µM | TGI [52]: > 100 µM | TGI [53]: > 100 µM | TGI [54]: > 100 µM | TGI [55]: > 100 µM
